Some test systems named below: A549 NSCLC; HT29 colon; K-562 leukemia; RXF 393 renal; SK-MEL-5 melanoma; RPMI-8226 leukemia; SNB-19 CNS; SF-539 CNS; NCI-H460 lung; UACC-257 melanoma.
What all share (assay): NCI-60 cell line screen, 48 h

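Test compounds were applied to cells in 96-well plates for 48 hours at 5 doses. GI50 = concentration required for 50% inhibition of growth. TGI is the concentration that stops growth completely.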

For the compound `CN(C)CCn1cc(-c2ccc3c(Nc4ccc(CC(=O)Nc5cccc(F)c5)cc4)ncnc3c2)cn1`, the GI50 with A549 NSCLC is 1.3 µM; with HT29 colon, 1.29 µM; in the assay on K-562 leukemia, 2.72 µM; in the assay with RXF 393 renal it was 1.35 µM; in the assay with SK-MEL-5 melanoma it was over 10 µM; in the assay on RPMI-8226 leukemia it was 2.32 µM. The GI50 was 1.34 µM in the assay on SNB-19 CNS, 0.0918 µM with SF-539 CNS, 0.087 µM in the assay on NCI-H460 lung and 1.84 µM in the assay on UACC-257 melanoma. The TGI in the assay with A549 NSCLC was 3.46 µM; in the assay on HT29 colon, 3.16 µM; in the assay with K-562 leukemia, over 10 µM; in the assay on RXF 393 renal, 2.84 µM; in the assay on SK-MEL-5 melanoma, over 10 µM; with RPMI-8226 leukemia, 5.93 µM. The TGI in the assay on SNB-19 CNS stood at 5.39 µM; with SF-539 CNS, 1.97 µM; in the assay on NCI-H460 lung, 2.49 µM; with UACC-257 melanoma it was 5.68 µM.

On to `CCOc1ccc2c(c1)/C(=C\C=C\C1CC(C)C3CC(OCC)CCC3N1CC)CC(C)N2CC` (stereo not given), for which the GI50 was 0.304 µM with A549 NSCLC; 0.521 µM in the assay on HT29 colon; 0.685 µM in the assay with K-562 leukemia; 1.17 µM with RXF 393 renal; 0.702 µM in the assay on SK-MEL-5 melanoma; 0.269 µM in the assay on RPMI-8226 leukemia. The GI50 was 0.512 µM in the assay on SNB-19 CNS, 1.27 µM in the assay with SF-539 CNS, 0.416 µM in the assay on NCI-H460 lung and 0.795 µM in the assay with UACC-257 melanoma. The TGI in the assay with A549 NSCLC was found to be 1.46 µM; with HT29 colon it was 1.69 µM; in the assay with K-562 leukemia it was 2.62 µM; in the assay with RXF 393 renal, 2.59 µM; with SK-MEL-5 melanoma, 2.01 µM; with RPMI-8226 leukemia, 1.65 µM. Besides, the TGI with SNB-19 CNS was 1.97 µM; in the assay on SF-539 CNS, 2.68 µM; in the assay with NCI-H460 lung, 1.64 µM; in the assay on UACC-257 melanoma it was 2.15 µM.

With `CN(C)/[N+]([O-])=N/Oc1cc(Nc2ccc(C(=O)O)cc2)c([N+](=O)[O-])cc1[N+](=O)[O-]`, the GI50 with A549 NSCLC is 75 µM; in the assay with HT29 colon it was 44.2 µM; in the assay on K-562 leukemia, 38.2 µM; with RXF 393 renal, 22.8 µM; in the assay on SK-MEL-5 melanoma, 20.2 µM; in the assay with RPMI-8226 leukemia, 23.6 µM. Besides, the GI50 with SNB-19 CNS was 18.2 µM; in the assay with SF-539 CNS, 23.5 µM; in the assay with NCI-H460 lung, 32.2 µM; in the assay with UACC-257 melanoma, 19.4 µM. In addition, the TGI in the assay with A549 NSCLC is over 100 µM; in the assay with HT29 colon, over 100 µM; with K-562 leukemia, over 100 µM; in the assay with RXF 393 renal, 47.8 µM; in the assay with SK-MEL-5 melanoma it was 41.3 µM; with RPMI-8226 leukemia it was over 100 µM. For the same compound, the TGI in the assay with SNB-19 CNS is 35.3 µM; in the assay with SF-539 CNS, 53.6 µM; in the assay with NCI-H460 lung it was over 100 µM; in the assay with UACC-257 melanoma, 35.5 µM.

`CC(CN(CP(=O)([O-])[O-])CP(=O)([O-])[O-])N(CP(=O)([O-])[O-])CP(=O)([O-])[O-].N[C@@H]1CCCC[C@@H]1N.[Pt+2]` (stereo not given): the GI50 in the assay with A549 NSCLC, in the assay on HT29 colon, in the assay with K-562 leukemia, in the assay with RXF 393 renal, with SK-MEL-5 melanoma and in the assay on RPMI-8226 leukemia was over 100 µM each time. Further, the GI50 in the assay on SNB-19 CNS, in the assay on SF-539 CNS, with NCI-H460 lung and in the assay on UACC-257 melanoma was over 100 µM each time. Besides, the TGI in the assay on A549 NSCLC, in the assay on HT29 colon, in the assay on K-562 leukemia, with RXF 393 renal, in the assay with SK-MEL-5 melanoma and with RPMI-8226 leukemia was over 100 µM throughout. For the same compound, the TGI in the assay with SNB-19 CNS, with SF-539 CNS, in the assay on NCI-H460 lung and in the assay with UACC-257 melanoma was over 100 µM throughout.

Turning to `Cc1ccc(S(=O)(=O)N2CCCCC2CCO)cc1` (stereo not given), the TGI in the assay on A549 NSCLC, with HT29 colon, in the assay on K-562 leukemia, in the assay on RXF 393 renal, with SK-MEL-5 melanoma and with RPMI-8226 leukemia was over 100 µM throughout. The TGI with SNB-19 CNS, in the assay on SF-539 CNS, with NCI-H460 lung and with UACC-257 melanoma was over 100 µM in each case.

As for `CC(C)(C)c1ccc(-c2nnc(SCc3ccc(Cl)cc3)n2-c2cccc(C(F)(F)F)c2)cc1`, the TGI in the assay on A549 NSCLC is over 100 µM; in the assay with HT29 colon, over 100 µM; in the assay with K-562 leukemia, over 100 µM; in the assay on RXF 393 renal, over 100 µM; with SK-MEL-5 melanoma, over 100 µM; in the assay on RPMI-8226 leukemia, 30.6 µM. The TGI in the assay on SNB-19 CNS was over 100 µM; in the assay with SF-539 CNS, over 100 µM; with NCI-H460 lung, over 100 µM; in the assay with UACC-257 melanoma, over 72.6 µM.

With `Cc1cc(Cl)ccc1NC(=O)C1C(=O)N(c2ccc(Cl)cc2C)C(=O)/C1=N\N` (stereo not given), the TGI with A549 NSCLC, with HT29 colon, with K-562 leukemia, with RXF 393 renal, with SK-MEL-5 melanoma and in the assay on RPMI-8226 leukemia was over 100 µM throughout. Also, the TGI in the assay with SNB-19 CNS, with SF-539 CNS, with NCI-H460 lung and with UACC-257 melanoma was over 100 µM each time.

Take `CCN(CCCl)CCNc1c2ccccc2nc2ccc(OC)cc12`: the TGI in the assay on A549 NSCLC amounted to 7.11 µM; in the assay on HT29 colon, 2.13 µM; with K-562 leukemia, 2.51 µM; in the assay on RXF 393 renal, 1.97 µM; with SK-MEL-5 melanoma, 2.6 µM; in the assay on RPMI-8226 leukemia it was 1.37 µM. Also, the TGI in the assay with SNB-19 CNS is 8.62 µM; in the assay on SF-539 CNS, 2.34 µM; in the assay on NCI-H460 lung, 2.2 µM; in the assay on UACC-257 melanoma, 3.73 µM.

`CC(C)(C)c1cc(C(O)(C(F)(F)F)C(F)(F)F)c2c(c1)C(C(F)(F)F)(C(F)(F)F)OC(c1ccccc1)(C(C)(C)C)N2` (stereo not given): the TGI in the assay with A549 NSCLC was over 100 µM; in the assay with HT29 colon it was 14.4 µM; in the assay on K-562 leukemia it was 11.6 µM; in the assay on RXF 393 renal it was 12.3 µM; in the assay with SK-MEL-5 melanoma, 10.3 µM; in the assay with RPMI-8226 leukemia, 12.1 µM. The TGI with SNB-19 CNS was 17.7 µM; in the assay on SF-539 CNS, over 100 µM; with NCI-H460 lung it was 11.7 µM; with UACC-257 melanoma it was 19.7 µM.

Consider `CCCCOC(=O)N[C@H]1CCc2cc(OC)c(OC)c(OC)c2-c2ccc(SC)c(=O)cc21`, for which the TGI in the assay on A549 NSCLC is 98.9 µM; in the assay with HT29 colon, under 0.0281 µM; in the assay on K-562 leukemia, 65.1 µM; in the assay with RXF 393 renal it was 2.07 µM; in the assay with SK-MEL-5 melanoma, under 0.01 µM; with RPMI-8226 leukemia, 17.1 µM. For the same compound, the TGI is 73 µM in the assay with SNB-19 CNS, under 0.01 µM with SF-539 CNS, 0.115 µM in the assay with NCI-H460 lung and 31.4 µM in the assay on UACC-257 melanoma.

The values above are taken from PubChem BioAssay (NCI).
